Reference: US12559474B2, “Triazine derivatives having virus replication inhibitory activity and pharmaceutical composition comprising the same” (priority 2021, dated 2026)
Where two headings read alike, the source gives them in different places.

Key:
SARS-CoV-2 = assay: microbe, parasite or virus in culture; format: cell-based; details: Severe acute respiratory syndrome coronavirus 2, VeroE6/TMPRSS2, 72 h, 50% SARS-CoV-2 infected cell death inhibitory concentration, VeroE6/TMPRSS2 cells, 3 days culture
SARS-CoV-2 3CL protease = SARS-CoV-2 3CL protease (Severe acute respiratory syndrome coronavirus 2, UniProt P0DTD1); assay: biochemical; details: 50% SARS-CoV-2 3CL protease inhibitory concentration, read-out: IC50

Compound	EC50 (SARS-CoV-2; class symbols) [µM]	IC50 (SARS-CoV-2 3CL protease; given as class symbols) [µM]	EC50 (SARS-CoV-2; CellTiter-Glo 2.0) [µM]	IC50 (SARS-CoV-2 3CL protease; RapidFire MS) [µM]
COc1cc(Cl)c(Nc2nc(=O)n(-c3cncc(C)c3)c(=O)n2Cc2ccc(F)c(C#N)c2)cn1 [II-0479]	1 to 10	< 0.1	–	–
Cn1cc2cc(Nc3nc(=O)n(-c4cncc(Cl)c4)c(=O)n3Cc3cc(F)c(F)cc3F)c(F)cc2n1 [II-0475]	1 to 10	< 0.1	–	–
Cc1cncc(-n2c(=O)nc(Nc3cc4cn(C)nc4cc3Cl)n(Cc3cc(C#N)ccc3C(F)F)c2=O)c1 [II-0333]	< 1	< 0.1	–	–
COc1ccc(Nc2nc(=O)n(Cc3ncn(C(F)F)n3)c(=O)n2Cc2cc(F)c(F)c(F)c2)cc1 [II-0257]	–	–	9.14	0.97
Cn1cnc(Cn2c(=O)nc(Nc3cc4cn(CC5(NC(=O)OC(C)(C)C)CC5)nc4cc3Cl)n(Cc3cc(F)c(F)c(Cl)c3)c2=O)n1 [II-0565]	1 to 10	< 0.1	–	–
Cn1cnc(Cn2c(=O)nc(Nc3cc4sc(NCC(F)F)nc4cc3Cl)n(Cc3cc(F)c(F)cc3F)c2=O)n1 [II-0500]	1 to 10	< 0.1	–	–
COc1ccc(Nc2nc(=O)n(Cc3cscn3)c(=O)n2Cc2cc(F)c(F)c(F)c2)cc1 [II-0258]	–	–	7.87	0.95
CCc1nc2cc(Cl)c(Nc3nc(=O)n(Cc4ncn(C)n4)c(=O)n3Cc3cc(Cl)c(F)cc3F)cc2s1 [II-0260]	< 1	< 0.1	–	–
Cn1cc2cc(Nc3nc(=O)n(-c4cncc(Cl)c4)c(=O)n3Cc3cc(C#N)ccc3Cl)ccc2n1 [II-0523]	–	–	0.24	0.011
Cn1cc2cc(Nc3nc(=O)n(-c4cnc5ccccn45)c(=O)n3Cc3cc(F)c(F)c(F)c3)c(Cl)cc2n1 [II-0391]	1 to 10	< 0.1	–	–
Cc1cncc(-n2c(=O)nc(NC3CCC3)n(Cc3cc(F)c(F)c(F)c3)c2=O)c1 [II-0227]	< 1	–	–	0.63
Cc1cncc(-n2c(=O)nc(Nc3cc4cn(C)nc4cc3F)n(Cc3cc(F)c(F)c(C#N)c3)c2=O)c1 [II-0054]	< 1	< 0.1	–	–
Cc1cncc(-n2c(=O)nc(Nc3ccc4nn(C(C)C)cc4c3)n(Cc3ccc(F)c(C#N)c3)c2=O)c1 [II-0038]	1 to 10	< 0.1	–	–
O=c1[nH]cccc1Cn1c(=O)nc(NC2(c3ccccc3F)COC2)n(Cc2cc(F)c(F)c(F)c2)c1=O [II-0484]	–	–	14.2	3.4
Cc1cncc(-n2c(=O)nc(Nc3cc4cn(C)nc4cc3C)n(Cc3cc(F)c(F)c(F)c3)c2=O)c1 [Compound I-0114]	1 to 10	< 0.1	–	–
COc1cc(C)c(Nc2nc(=O)n(-c3cncc(C)c3)c(=O)n2Cc2ccc(F)c(C#N)c2)cn1 [II-0122]	1 to 10	< 0.1	–	–
Cc1cncc(-n2c(=O)nc(Nc3cc4cn(CC(F)F)nc4cc3Cl)n(Cc3cc(F)c(F)c(F)c3)c2=O)c1 [II-0090]	–	–	0.355	0.016
COc1ccc(Nc2nc(=O)n(Cc3ccc[nH]c3=O)c(=O)n2Cc2ccc(F)c(Cl)c2)cc1 [Compound I-0252]	1 to 10	< 0.1	–	–
CN(C)C(=O)Cn1cc2cc(Nc3nc(=O)n(-c4cncc5ccccc45)c(=O)n3Cc3cc(F)c(F)cc3F)c(Cl)cc2n1 [II-0002]	1 to 10	< 0.1	–	–
Cc1cncc(-n2c(=O)nc(Nc3cc4cn(C[C@H](C)O)nc4cc3Cl)n(Cc3cc(F)c(F)c(F)c3)c2=O)c1 [II-0101]	< 1	< 0.1	–	–
COC(=O)Nc1nc2cc(Cl)c(Nc3nc(=O)n(Cc4ncn(C)n4)c(=O)n3Cc3cc(Cl)c(F)cn3)cc2s1 [II-0080]	1 to 10	< 0.1	–	–
Cn1cnc(Cn2c(=O)nc(Nc3cc4cn(C)nc4cc3Br)n(Cc3cc(F)c(F)c(F)c3)c2=O)n1 [II-0448]	< 1	< 0.1	–	–
Cn1cnc(Cn2c(=O)nc(Nc3cc4cn(C)nc4cc3Cl)n(Cc3cc(C#N)c(F)cc3Cl)c2=O)n1 [II-0088]	1 to 10	< 0.1	–	–
Cc1cncc(-n2c(=O)nc(Nc3cc4cn(C)nc4cc3Cl)n(Cc3cc(C#N)ccc3Cc3cccc(F)c3)c2=O)c1 [II-0027]	< 1	< 0.1	–	–
